Experimental data: patent US20080131511A1, “Pharmaceutical Composition for Treatment of Tear and Salivary Fluid Drying” (Astellas Pharma, Inc., priority 2004, published 2008)

Tests used:
Type in all cases: in vivo, mouse (male Balb/c)
salivary gland [1] = test: Salivary fluid secretion during subcutaneous continuous administration (osmotic pump); details: mice; for Salivary fluid: AUC of secreted amount
Method: (§1) Male Balb/c mice were used in the test.
(§2) The compound A was dissolved in physiological saline to a concentration of 0.625, 1.25, 2.5, 5.0, 10 or 20 mg/200 μl, and filled each pump (Alzet mini-osmotic pump 2001D, 8 μl/h, 1 day; DURECT Corporation) with about 200 μl portions It means, that is, each pump releases at a rate of 0.025, 0.05, 0.1, 0.2, 0.4 or 0.8 mg compound A/h, respectively. About 5 mm of dorsal epidermis of a mouse anesthetized with diethyl ether was incised, the osmotic pump already filled with the compound A was subcutaneously implanted, and then the skin was stitched. Secreted amounts of salivary and tear fluid and sweating were periodically measured from just before the implantation of pump until 32 hours after the administration. The ornithine decarboxylase activity was measured 10 hours after the implantation.
(§3) Pilocarpine was dissolved in physiological saline to a concentration of 0.039, 0.078, 0.16 or 0.31 mg/200 μl, or cevimeline to a concentration of 0.16, 0.31, 0.63 or 1.3 mg/200 μl, and filled the osmotic pump (Alzet mini-osmotic pump 2001 D, 8 μl/h, 1 day; DURECT Corporation) with about 200 μl portions. It means, that is, each pump releases at a rate of 0.00156, 0.00312, 0.0064 or 0.0124 mg/h (pilocarpine) or 0.0064, 0.0124, 0.0252 or 0.05 mg/h (cevimeline). About 5 mm of dorsal epidermis of a mouse anesthetized with diethyl ether was incised, the osmotic pump already filled with pilocarpine or cevimeline was subcutaneously implanted, and then the skin was stitched. Secreted amounts of salivary and tear fluid and sweating were periodically measured from just before the implantation of pump until 32 hours after the administration. The ornithine decarboxylase activity was measured 10 hours after the implantation.
(§4) The mouth of a mouse was wiped with a cotton ball whose weight had been measured in advance, and the incremental weight was used as the amount of salivary fluid. Also at the same time, a thread for tear fluid measurement (Zone Quick; Menicon) used on the Schirmer test was inserted into the lower eyelid conjunctival sac, and the length of colored part was measured and used as the amount of tear fluid. From the measurement results, area under the secreted amount-versus-time curve (AUC) was calculated.
(§5) All of the test results were expressed as fold increases of the reactions of the drug-administered group versus those of the vehicle-administered group, and comparison between the drug-administered groups and the vehicle-administered group was carried out using Dunnett's t-test. P<0.05 was considered significant. Results

lacrimal gland [2] = test: Tear fluid secretion after subcutaneous bolus administration; details: mice
Method: as §1
(§6) The compound A was dissolved in physiological saline to a concentration of 1, 3, 10, 30 or 100 mg/5 ml, and 5 ml/kg of the drug solution was administered under the dorsal skin. Secreted amounts of salivary and tear fluid were measured just before the administration of compound A and 10, 20, 30, 40 and 50 minutes after the administration. The sweating action was measured 10 minutes after the administration. Also, the growth acceleration action was measured 6 hours after the administration.
as §6, with “Pilocarpine was dissolved” for “The compound A was dissolved”, “concentration of 0.03, 0.1, 0.3, 1, 3 or 10 mg/5 ml, or cevimeline to a concentration of 0.3, 1, 3,” for “concentration of 1, 3,”, “administration of pilocarpine or cevimeline and 10,” for “administration of compound A and 10,”
as §4, §5

[3] = system: ornithine decarboxylase (ODC) activity of parotid salivary gland; test: Ornithine decarboxylase activity of parotid salivary gland after subcutaneous bolus administration; details: mice
Method: (§7) Male Balb/c mice were used in the test. […] Also, the growth acceleration action was measured 6 hours after the administration. […] Also, the growth acceleration action was measured 6 hours after the administration. […] Thus, it can be easily analogized that the ODC activity becomes a useful index of cell growth and function of the exocrine gland. Accordingly, the ability of each drug to activate glandular tissue was evaluated by measuring ODC activity of parotid salivary gland and extra-orbital lacrimal gland. The amount of ^14CO2 formed from L-^14C-ornithine was used as the index of ODC activity. A mouse anesthetized with diethyl ether was sacrificed by bleeding, and left and right parotid salivary glands and extra-orbital lacrimal glands were isolated. After removing the attached connective tissue and fat, the isolated glandular tissues homogenized in 1.5 ml of a homogenate buffer (25 mM Tris-HCl buffer (pH 7.4) containing 0.1 mM ethylenediaminetetraacetic acid, 0.4 mM pyridoxal phosphate, 5 mM dithiothreitol and 0.1% Brij 35®) using a Potter type homogenizer and then centrifuged at 4° C., 15,000 g for 30 minutes, and the supernatant was used as the enzyme fraction. […] The ^14CO2 generated by the reaction was captured by 150 μl of 1 N NaOH soaked in a glass filter. Radioactivity of the ^14CO2 captured on the glass filter was detected using a liquid scintillation counter. The enzyme activity (pmol ^14CO2/mg protein/hour) was calculated from the measured results. All of the test results were expressed as fold increases of the reactions of the drug-administered group versus those of the vehicle-administered group, and comparison between the drug-administered groups and the vehicle-administered group was carried out using Dunnett's t-test. P<0.05 was considered significant. Results

lacrimal gland [4] = test: Tear fluid secretion during subcutaneous continuous administration (osmotic pump); details: mice, AUC of secreted amount
Method: as §1, §2, §3, §4, §5

salivary gland [5] = test: Salivary fluid secretion after subcutaneous bolus administration; details: mice
Method: as §1, §6
as §6, with “Pilocarpine was dissolved” for “The compound A was dissolved”, “concentration of 0.03, 0.1, 0.3, 1, 3 or 10 mg/5 ml, or cevimeline to a concentration of 0.3, 1, 3,” for “concentration of 1, 3,”, “administration of pilocarpine or cevimeline and 10,” for “administration of compound A and 10,”
as §4, §5

[6] = system: ornithine decarboxylase (ODC) activity of extra-orbital lacrimal gland; test: Ornithine decarboxylase activity of extra-orbital lacrimal gland after subcutaneous bolus administration; details: mice
Method: as §7

[7] = s.c. osmotic pump 0.039 mg (0.00156 mg/h)
[8] = s.c. osmotic pump 0.078 mg (0.00312 mg/h)
[9] = s.c. osmotic pump 0.16 mg (0.0064 mg/h)
[10] = s.c. osmotic pump 0.31 mg (0.0124 mg/h)
[11] = s.c. bolus 0.03 mg/kg, 10 minutes after administration
[12] = s.c. bolus 0.1 mg/kg, 10 minutes after administration
[13] = s.c. bolus 0.3 mg/kg, 10 minutes after administration
[14] = s.c. bolus 1 mg/kg, 10 minutes after administration (Table 3)
[15] = s.c. bolus, 10 minutes after administration
[16] = s.c. bolus 1 mg/kg, ODC activity 6 hours after administration
[17] = s.c. bolus 3 mg/kg, ODC activity 6 hours after administration
[18] = s.c. bolus 10 mg/kg, ODC activity 6 hours after administration (Table 3)

In the case of `CC[C@@H]1C(=O)OC[C@@H]1Cc1cncn1C` [pilocarpine], the “dose at which salivary fluid secretion acceleration action reached maximum” value (salivary gland [1]; s.c. continuous administration) is reported as 0.16 mg, the Salivary fluid (salivary gland [1]; [7]) is reported as 1.1 ± 0.04 fold increase vs. vehicle group and the Salivary fluid (salivary gland [1]; [8]) is reported as 1.5 ± 0.08 fold increase vs. vehicle group. For the same compound, the Salivary fluid (salivary gland [1]; [9]) was 2.9 ± 0.14 fold increase vs. vehicle group, the Salivary fluid (salivary gland [1]; [10]) was 2.8 ± 0.24 fold increase vs. vehicle group and the Tear fluid (lacrimal gland [2]; [11]) was 0.65 ± 0.19 fold increase vs. the vehicle group. For the same compound, the Tear fluid (lacrimal gland [2]; [12]) was 0.80 ± 0.24 fold increase vs. the vehicle group, the Tear fluid (lacrimal gland [2]; [13]) was 1.1 ± 0.14 fold increase vs. the vehicle group and the Tear fluid (lacrimal gland [2]; [14]) was 2.7 ± 0.40 fold increase vs. the vehicle group. For the same compound, the “dose at which statistically significant acceleration of tear fluid secretion was attained” value (lacrimal gland [2]; [15]) was 1 mg/kg, the “Glandular cell growth Salivary gland” value [3, 16] was 1.4 ± 0.48 fold increase vs. the vehicle group and the “Glandular cell growth Salivary gland” value [3, 17] was 1.3 ± 0.54 fold increase vs. the vehicle group. The “Glandular cell growth Salivary gland” value [3, 18] was 3.2 ± 1.1 fold increase vs. the vehicle group, the Tear fluid (lacrimal gland [4]; [7]) was 0.81 ± 0.02 fold increase vs. vehicle group and the Tear fluid (lacrimal gland [4]; [8]) was 1.1 ± 0.13 fold increase vs. vehicle group. For the same compound, the Tear fluid (lacrimal gland [4]; [9]) was 1.1 ± 0.14 fold increase vs. vehicle group, the Tear fluid (lacrimal gland [4]; [10]) was 1.1 ± 0.12 fold increase vs. vehicle group and the Salivary fluid (salivary gland [5]; [11]) was 1.2 ± 0.15 fold increase vs. the vehicle group. The Salivary fluid (salivary gland [5]; [12]) was 1.8 ± 0.23 fold increase vs. the vehicle group, the Salivary fluid (salivary gland [5]; [13]) was 1.7 ± 0.15 fold increase vs. the vehicle group and the Salivary fluid (salivary gland [5]; [14]) was 2.0 ± 0.18 fold increase vs. the vehicle group. The “dose at which statistically significant acceleration of salivary fluid secretion was attained” value (salivary gland [5]; [15]) was 0.1 mg/kg, the “time after administration at which secretion amount of salivary and tear fluid reached maximum” value (salivary gland [5]; s.c. bolus, every dose) was 10 min and the “Glandular cell growth Lacrimal gland” value [6, 16] was 0.69 ± 0.09 fold increase vs. the vehicle group. The “Glandular cell growth Lacrimal gland” value [6, 17] was 0.95 ± 0.23 fold increase vs. the vehicle group and the “Glandular cell growth Lacrimal gland” value [6, 18] was 2.8 ± 0.61 fold increase vs. the vehicle group.
